# Article PMC3355106, “Structural Basis for Specificity of Propeptide-Enzyme Interaction in Barley C1A Cysteine Peptidases” (PLoS ONE, 2012)
# Peptide text beside a SMILES is read from it. * marks the point of attachment. AMC = Cc1cc(=O)oc2cc(N*)ccc12; Cbz = O=C(OCc1ccccc1)*
# Columns and labels:
# Assay in all cases: fluorescence of released AMC
# Assay type in all cases: biochemical
# Details in all cases: pH 6.0, 30 °C, 10 mM L-cysteine, 10 mM EDTA, 0.01% Brij35
# HvPap-4 = target: T1, HvPap-4 (Hordeum vulgare, UniProt B4ESE6)
# T1 construct: gene pap-4; propeptide printed as R25-D134
# T1 sequence (B4ESE6 entry or part of it): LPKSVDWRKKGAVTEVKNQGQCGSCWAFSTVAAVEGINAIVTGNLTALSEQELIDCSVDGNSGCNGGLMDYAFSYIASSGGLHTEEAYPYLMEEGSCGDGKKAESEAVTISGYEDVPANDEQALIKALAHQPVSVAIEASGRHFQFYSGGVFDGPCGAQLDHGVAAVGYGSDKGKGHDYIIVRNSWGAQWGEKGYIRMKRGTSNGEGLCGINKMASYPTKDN
# HvPap-6 = target: T2, HvPap-6 (Hordeum vulgare, UniProt B4ESE8)
# T2 construct: gene pap-6; propeptide printed as A25-E131
# T2 sequence (B4ESE8 entry or part of it): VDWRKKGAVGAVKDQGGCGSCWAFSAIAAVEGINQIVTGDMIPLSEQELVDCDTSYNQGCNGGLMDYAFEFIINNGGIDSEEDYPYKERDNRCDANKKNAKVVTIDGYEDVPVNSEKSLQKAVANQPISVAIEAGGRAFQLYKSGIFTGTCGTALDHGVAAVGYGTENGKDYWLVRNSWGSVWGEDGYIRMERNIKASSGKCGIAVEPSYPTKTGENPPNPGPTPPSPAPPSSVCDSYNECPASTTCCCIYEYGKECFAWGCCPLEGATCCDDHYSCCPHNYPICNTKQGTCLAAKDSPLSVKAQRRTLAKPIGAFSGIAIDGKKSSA
# HvPap-16 = target: T3, HvPap-16 (Hordeum vulgare, UniProt B4ESF4)
# T3 construct: gene pap-16; the propeptide cloning list prints HvPap-17 (A23-V156) instead of HvPap-16
# T3 sequence (B4ESF4 entry or part of it): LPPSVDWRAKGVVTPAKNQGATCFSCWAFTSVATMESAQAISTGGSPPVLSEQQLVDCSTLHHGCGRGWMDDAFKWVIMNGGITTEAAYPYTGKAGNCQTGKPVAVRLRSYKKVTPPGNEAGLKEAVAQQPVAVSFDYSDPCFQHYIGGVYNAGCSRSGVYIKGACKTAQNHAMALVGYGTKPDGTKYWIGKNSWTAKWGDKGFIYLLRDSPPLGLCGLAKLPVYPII
# BovCathB = target: T4, BovCathB (Bos taurus, UniProt P07688)
# T4 construct: gene CTSB; commercial enzyme (Calbiochem)
SMILES,fluorescence of released AMC (HvPap-4),fluorescence of released AMC (HvPap-6),fluorescence of released AMC (HvPap-16),fluorescence of released AMC (BovCathB)
Cc1cc(=O)oc2cc(NC(=O)[C@H](CCCNC(=N)N)NC(=O)[C@H](Cc3ccccc3)NC(=O)OCc3ccccc3)ccc12 [Z-FR-AMC] (Cbz-Phe-Arg-{AMC}),Z-FR-AMC (for cathepsin L) or Z-RR-AMC (for cathepsin B) fluorescent substrates were added,Z-FR-AMC (for cathepsin L) or Z-RR-AMC (for cathepsin B) fluorescent substrates were added,Z-FR-AMC (for cathepsin L) or Z-RR-AMC (for cathepsin B) fluorescent substrates were added,–
Cc1cc(=O)oc2cc(NC(=O)[C@H](CCCNC(=N)N)NC(=O)[C@H](CCCNC(=N)N)NC(=O)OCc3ccccc3)ccc12 [Z-RR-AMC] (Cbz-Arg-Arg-{AMC}),–,–,–,Z-FR-AMC (for cathepsin L) or Z-RR-AMC (for cathepsin B) fluorescent substrates were added
